Data set [1] deals with HEK-293 (human embryonic kidney cells). Nature of the data set: Cell proliferation assay (MTT). The format is cell-based. The following applies: HEK293, 48 h, 2 days incubation, average ± SD of three experiments. An excerpt: (§1) The ability of Ureas 13–33 to inhibit cell proliferation was established by means of their IC50 values towards the human tumor cell lines HT-29 (colon adenocarcinoma), MCF-7 (breast adenocarcinoma), HeLa (epithelioid cervix carcinoma) and A549 (pulmonary adenocarcinoma), as well as towards the endothelial cell line HMEC-1 (human microvascular endothelial cells) and the non-tumor cell line HEK-293 (human embryonic kidney cells).
(§2) HT-29, MCF-7, HeLa, A549 and HEK-293 cell lines were maintained in Dulbecco’s modified Eagle’s medium (DMEM) containing glucose (1 g/L), glutamine (2 mM), penicillin (50 μg/mL), streptomycin (50 μg/mL), and amphotericin B (1.25 μg/mL), supplemented with 10% FBS. HMEC-1 cell line was maintained in Dulbecco’s modified Eagle’s medium (DMEM)/low glucose containing glutamine (2 mM), penicillin (50 μg/mL), streptomycin (50 μg/mL), and amphotericin B (1.25 μg/mL), supplemented with 10% FBS. For the development of tube formation assays in Matrigel, HMEC-1 cells were cultured in EGM-2MV Medium supplemented with EGM-2MV SingleQuots.
(§3) In 96-well plates, 3 × 10^3 (HeLa, A549, HMEC-1, HEK-293) or 5 × 10^3 (HT-29, MCF-7) cells per well were incubated with serial dilutions of the tested compounds in a total volume of 100 μL of their respective growth media. The 3-(4,5-dimethylthiazol-2-yl)-2,5-diphenyltetrazolium bromide (MTT; Sigma Chemical Co.) dye reduction assay in 96-well microplates was used. After 2 days of incubation (37 °C, 5% CO2 in a humid atmosphere), 10 μL of MTT (5 mg/mL in phosphate-buffered saline, PBS) was added to each well, and the plate was incubated for a further 3 h (37 °C). After that, the supernatant was discarded and replaced by 100 µL of DMSO to dissolve formazan crystals. The absorbance was then read at 540 nm by spectrophotometry. For all concentrations of compound, cell viability was expressed as the percentage of the ratio between the mean absorbance of treated cells and the mean absorbance of untreated cells. Three independent experiments were performed, and the IC50 values (i.e., concentration half inhibiting cell proliferation) were graphically determined using GraphPad Prism 4 software.

Data set [2] has as its system A549 (pulmonary adenocarcinoma). Nature of the data set: Cell proliferation assay (MTT). Type of data set: cell-based. The following applies: Homo sapiens, A549, 48 h, 2 days incubation, average ± SD of three experiments.
Excerpt: as §1, §2, §3

For data set [3], the system named is HeLa (epithelioid cervix carcinoma). Nature of the data set: Cell proliferation assay (MTT). The format is cell-based. The following applies: Homo sapiens, 48 h, 2 days incubation, average ± SD of three experiments.
Excerpt: as §1, §2, §3

In data set [4] the test system is MCF-7 (breast adenocarcinoma). In words: Cell proliferation assay (MTT). Type of data set: cell-based. The following applies: Homo sapiens, MCF7, 48 h, 2 days incubation, average ± SD of three experiments.
Excerpt: as §1, §2, §3

In data set [5] the test system is HT-29 (colon adenocarcinoma). Nature of the data set: Cell proliferation assay (MTT). The format is cell-based. The following applies: Homo sapiens, HT-29, 48 h, 2 days incubation, average ± SD of three experiments.
Excerpt: as §1, §2, §3

The test system of data set [6] is HMEC-1 (human microvascular endothelial cells). Nature of the data set: Cell proliferation assay (MTT). Type of data set: cell-based. The following applies: HMEC-1, 48 h, 2 days incubation, average ± SD of three experiments.
Excerpt: as §1, §2, §3

Another data set deals with HT-29 cells. In words: Cell proliferation evaluation in co-cultures: HT-29 with Jurkat T cells. The following applies: 24 h. The format is cell-based, human. As for the experimental part:
We also studied the effect of Compounds 16, 23, 26 and 33 on tumor cell proliferation in the presence of PD-1 expressing Jurkat T-cells. For this assay, first interferon γ stimulated HT-29 cells were treated for 24 h with the selected compounds at 10 µM in presence of Jurkat T cells. Then, living cells were counted using trypan blue and a Neubauer chamber and by flow cytometry.
In 12-well plates, 10^5 HT-29 cells per well were seeded and incubated for 24 h with cell culture medium supplemented with IFN-γ (10 ng/mL; human, Invitrogen®) then medium was change by one containing 4 × 10^5 Jurkat T cells per well and 10 μM of the corresponding compound or DMSO for the control. After 24 h of incubation, supernatants were collected to determine Jurkat T cell living cells and, on the other hand, HT-29 cells were collected with trypsin. Both types of suspension cells were counted with the Neubauer chamber and trypan blue and also by flow cytometry.

The target in a further data set is VEGFR-2 (Homo sapiens, UniProt P35968). Nature of the data set: VEGFR-2 quantification by flow cytometry in HMEC-1. On the set-up: Both membrane and total VEGFR-2 were relatively determined using dimethyl sulfoxide (DMSO) treated cells as a negative control; endogenous in cells; host or cells: HMEC-1 (human microvascular endothelial cells). Type of data set: cell-based. The following applies: 10 µM, 24 h, relative to DMSO control. For orientation: Flow cytometry measures light scatter and fluorescence of single cells or particles in a stream.
Sequence of VEGFR-2 (P35968 20-1356): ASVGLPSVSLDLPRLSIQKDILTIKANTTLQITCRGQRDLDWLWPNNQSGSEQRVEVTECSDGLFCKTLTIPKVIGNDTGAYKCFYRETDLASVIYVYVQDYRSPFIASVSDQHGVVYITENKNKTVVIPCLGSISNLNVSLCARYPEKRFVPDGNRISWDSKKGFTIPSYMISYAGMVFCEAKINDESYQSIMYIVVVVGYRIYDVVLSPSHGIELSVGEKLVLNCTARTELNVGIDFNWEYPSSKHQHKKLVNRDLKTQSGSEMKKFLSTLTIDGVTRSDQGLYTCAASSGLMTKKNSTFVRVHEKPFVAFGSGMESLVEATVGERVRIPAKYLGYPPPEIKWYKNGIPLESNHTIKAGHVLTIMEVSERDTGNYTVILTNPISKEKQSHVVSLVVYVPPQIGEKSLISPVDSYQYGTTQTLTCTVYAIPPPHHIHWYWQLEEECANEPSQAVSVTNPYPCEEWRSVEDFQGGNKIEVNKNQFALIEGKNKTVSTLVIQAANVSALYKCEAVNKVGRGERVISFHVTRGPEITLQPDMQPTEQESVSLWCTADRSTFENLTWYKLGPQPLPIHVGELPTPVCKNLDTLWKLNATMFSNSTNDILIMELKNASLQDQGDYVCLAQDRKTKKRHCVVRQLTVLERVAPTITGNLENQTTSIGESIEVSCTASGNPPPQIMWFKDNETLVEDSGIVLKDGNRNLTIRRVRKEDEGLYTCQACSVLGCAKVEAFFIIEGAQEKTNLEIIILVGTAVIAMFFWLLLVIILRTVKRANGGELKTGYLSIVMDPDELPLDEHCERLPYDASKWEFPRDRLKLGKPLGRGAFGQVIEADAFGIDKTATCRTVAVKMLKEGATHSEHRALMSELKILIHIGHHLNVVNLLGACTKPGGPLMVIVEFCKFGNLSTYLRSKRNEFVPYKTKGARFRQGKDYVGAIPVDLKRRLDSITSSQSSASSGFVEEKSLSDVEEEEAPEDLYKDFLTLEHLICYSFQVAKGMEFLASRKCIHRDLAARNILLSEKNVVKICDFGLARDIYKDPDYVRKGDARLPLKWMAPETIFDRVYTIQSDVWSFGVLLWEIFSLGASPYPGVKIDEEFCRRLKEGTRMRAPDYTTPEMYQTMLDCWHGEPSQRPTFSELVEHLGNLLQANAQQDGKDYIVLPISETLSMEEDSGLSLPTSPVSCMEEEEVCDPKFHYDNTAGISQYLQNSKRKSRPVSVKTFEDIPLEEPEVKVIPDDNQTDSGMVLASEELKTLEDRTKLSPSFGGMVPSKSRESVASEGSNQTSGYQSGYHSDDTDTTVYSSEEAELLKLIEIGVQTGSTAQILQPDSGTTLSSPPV

A further data set has as its target PD-L1 (Homo sapiens, UniProt Q9NZQ7). In words: PD-L1 quantification by flow cytometry in A-549. The following applies: A-549, 10 μM, 24 h, referred to control (DMSO). The format is cell-based. On the set-up: endogenous in cells; host or cells: A-549 cancer cells. On the procedure: (§4) We evaluated the effect of the selected compounds on PD-L1 and on c-Myc proteins by flow cytometry after 24 h treatment at 10 μM concentration of compounds. Both, PD-L1 and c-Myc were relatively determined using DMSO treated cells as a negative control and BMS-8 as a positive one.
(§5) For the detection of total PD-L1 and c-Myc, cancer cells were seeded (3 × 10^5 cells/well) in 6-well plates and were incubated with the corresponding compounds for 24 h. Then they were collected, fixed, treated with 0.5% Triton^TM X-100 and stained with Alexa Fluor® 647 Rabbit monoclonal Anti-PD-L1 (ab215251) and FITC Rabbit monoclonal anti-c-Myc (ab223913).
(§6) We also checked results performing ELISA tests. For ELISA tests, lysates were collected, protein quantification was carried out by Bradford test and, then, PD-L1 and c-Myc were quantified using Human PD-L1 ELISA Kit 28-8 (ab214565) and c-Myc (Total) Human ELISA Kit (KHO2041), respectively, according to the manufacturer’s instructions.

The subject of a further data set is c-Myc. Nature of the data set: c-Myc quantification by flow cytometry in A-549. Type of data set: cell-based, human. The following applies: A-549, 10 μM, 24 h, referred to control (DMSO). As for the experimental part:
as §4, §5, §6

Sequence of PD-L1 (Q9NZQ7 19-290): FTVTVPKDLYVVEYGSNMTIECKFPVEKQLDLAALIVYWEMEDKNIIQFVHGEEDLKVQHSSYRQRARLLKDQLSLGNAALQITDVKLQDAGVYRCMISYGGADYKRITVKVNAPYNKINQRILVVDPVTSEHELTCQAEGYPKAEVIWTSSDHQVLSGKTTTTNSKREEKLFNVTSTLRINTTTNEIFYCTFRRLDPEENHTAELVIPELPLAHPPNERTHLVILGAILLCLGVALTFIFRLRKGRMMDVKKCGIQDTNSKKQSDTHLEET
Protocol for VEGFR-2: We performed the study on both a HT-29 cancer cell line and a human microvessel endothelial cell line (HMEC-1). […] The effect of these selected derivatives on VEGFR-2, on HT-29 tumor cell line and on human microvessel endothelial cells (HMEC) was determined by flow cytometry technique. […] For these assays, cells were incubated for 24 h in the presence of the corresponding compounds at 10 µM concentration.

The term IC50 denotes the concentration at which inhibition is half-maximal. Read a high IC50 as a need for much substance. For orientation: inhibition means the share of the control response that was lost under treatment. One may read the melting point as the temperature, or range, at which the solid turns liquid. `COc1ccc(/C=C\c2cccc(NC(=O)Nc3ccc(Br)cc3)c2)cc1` [Compound 16] yielded a melting point of 173 °C. This compound also had an IC50 in data set [1] of 10 ± 2 µM. This compound also came in with an IC50 in data set [2] of 12 ± 2 µM. In data set [3], this compound yielded an IC50 of 12 ± 4 µM. The same compound had an IC50 in data set [4] of 24 ± 7 µM. Half-maximal inhibition in [5] (IC50) was put at 17 ± 1 µM. The compound further had an IC50 in data set [6] of 27 ± 8 µM. The compound also gave an inhibition at 10 µM with HT-29 cells (Homo sapiens, HT-29, co-cultured with Jurkat T-cells) of roughly 90%. Further, in the data set with HT-29 cells (IFN-γ stimulated HT-29 co-cultured with Jurkat T cells, 10 µM, five experiments), the “Living HT-29 cell proliferation (%)” value is 9%. Also, on VEGFR-2, the “Membrane VEGFR-2 (%)” value was determined as 45 ± 8% and the “Total VEGFR-2 (%)” value amounted to 59 ± 5%. In addition, at PD-L1, the “PD-L1 (%) relative expression” value is on record as 23 ± 8%. Also, the “c-Myc (%) relative expression” value in the data set with c-Myc amounted to 29 ± 5%.

The values are drawn from paper PMC8067507, “Aryl Urea Based Scaffolds for Multitarget Drug Discovery in Anticancer Immunotherapies” (Pharmaceuticals, 2021).
